Data set [1] can be described thus: Toxicity in Crl:CD Sprague-Dawley rat assessed as monocyte count in blood at 100 mg/kg, po administered daily for 14 days (reference value: 0.203+/-0.09 10^3/uL). Conditions: in vivo, 336 h, time 14 day. It counts as organism-based.
A short description of data set [2]: Toxicity in Crl:CD Sprague-Dawley rat assessed as hematocrit level in blood at 100 mg/kg, po administered daily for 14 days (reference value: 41.2 +/-[…]). The following applies: in vivo, 336 h, time 14 day. It counts as organism-based.
Data set [3] can be described thus: Toxicity in Crl:CD Sprague-Dawley rat assessed as globulin level in blood at 100 mg/kg, po administered daily for 14 days (reference value: 1.6 +/-0.082 g/dL). The data set is classed as organism-based. Conditions: in vivo, 336 h, time 14 day.
Data set [4] can be described thus: Toxicity in Crl:CD Sprague-Dawley rat assessed as […] dehydrogenase level in blood at 100 mg/kg, po administered daily for 14 days (reference value: 103 +/-16.1 U/L). It counts as organism-based. Conditions: in vivo, 336 h, time 14 day.
Data set [5] is described as follows: Mean AUC (0-24 hrs) in Crl:CD Sprague-Dawley rat at 100 mg/kg, po by LC/MS/MS analysis. Conditions: in vivo. It counts as ADME, organism-based.
Data set [6] in a line: Toxicity in Crl:CD Sprague-Dawley rat assessed as albumin level in blood at 100 mg/kg, po administered daily for 14 days (reference value: 3.85+/-0.129 g/dL). The data set is classed as organism-based. The following applies: in vivo, 336 h, time 14 day.
Data set [7] is described as follows: AUC (0 to 24 hrs) in BALB/c mouse at 6.3 mg/kg administered as single dose. It counts as ADME, organism-based. Conditions: in vivo, route po.
Another data set concerns KARPAS-422. The experiment in a line: Antitumor activity against human KARPAS-422 cells xenografted in CB17/Icr-Prkdcscid/CrlCrlj mouse assessed as inhibition of tumor growth administered orally BID for 14 days. It counts as functional, cell-based. Conditions: dose 3.1-50 mg/kg, route po, time 14.0 day. For orientation: Xenograft models place foreign cells or tissue in a host animal.

The next data set concerns NCI-H520. The experiment in a line: Antitumor activity against human NCI-H520 cells assessed as cell growth inhibition treated for 10 to 15 days. Conditions: time 10-15 day. The data set is classed as functional.
In another data set the test system is ZR-75-1. The experiment in a line: Antitumor activity against human ZR-75-1 cells assessed as cell growth inhibition treated for 10 to 15 days. The data set is classed as functional. Conditions: time 10-15 day.
Data set [8] in a line: Antitumor activity against human NCI-H660 cells assessed as cell growth inhibition treated for 10 to 15 days. It counts as functional. The following applies: time 10-15 day.
The test system of the next data set is MDA-MB-415. The experiment in a line: Antitumor activity against human MDA-MB-415 cells assessed as cell growth inhibition treated for 10 to 15 days. It counts as functional. The following applies: time 10-15 day.
The test system of the next data set is HT. The experiment in a line: Antitumor activity against human HT cells assessed as cell growth inhibition treated for 10 to 15 days. It counts as functional. Conditions: time 10-15 day.
The next data set deals with SNU-423. The experiment in a line: Antitumor activity against human SNU-423 cells assessed as cell growth inhibition treated for 10 to 15 days. It counts as functional. The following applies: time 10-15 day.
Another data set has as its system UACC-893. The experiment in a line: Antitumor activity against human UACC-893 cells assessed as cell growth inhibition treated for 10 to 15 days. It counts as functional. Conditions: time 10-15 day.
In the next data set the test system is Panc1005. The experiment in a line: Antitumor activity against human Panc1005 cells assessed as cell growth inhibition treated for 10 to 15 days. It counts as functional. The following applies: time 10-15 day.
Data set [9] in a line: Antitumor activity against human MDA-PCa-2b cells assessed as cell growth inhibition treated for 10 to 15 days. The data set is classed as functional. Conditions: time 10-15 day.
In data set [10] the target is DNA (cytosine-5)-methyltransferase 3A (Homo sapiens, UniProt Q9Y6K1). The experiment in a line: Inhibition of human DNMT3a using lambda DNA and [3H]SAM as substrate incubated for 30 mins to 1 hr by HotSpot kinase assay.
DNA (cytosine-5)-methyltransferase 3A, sequence (Q9Y6K1 whole entry, looked up): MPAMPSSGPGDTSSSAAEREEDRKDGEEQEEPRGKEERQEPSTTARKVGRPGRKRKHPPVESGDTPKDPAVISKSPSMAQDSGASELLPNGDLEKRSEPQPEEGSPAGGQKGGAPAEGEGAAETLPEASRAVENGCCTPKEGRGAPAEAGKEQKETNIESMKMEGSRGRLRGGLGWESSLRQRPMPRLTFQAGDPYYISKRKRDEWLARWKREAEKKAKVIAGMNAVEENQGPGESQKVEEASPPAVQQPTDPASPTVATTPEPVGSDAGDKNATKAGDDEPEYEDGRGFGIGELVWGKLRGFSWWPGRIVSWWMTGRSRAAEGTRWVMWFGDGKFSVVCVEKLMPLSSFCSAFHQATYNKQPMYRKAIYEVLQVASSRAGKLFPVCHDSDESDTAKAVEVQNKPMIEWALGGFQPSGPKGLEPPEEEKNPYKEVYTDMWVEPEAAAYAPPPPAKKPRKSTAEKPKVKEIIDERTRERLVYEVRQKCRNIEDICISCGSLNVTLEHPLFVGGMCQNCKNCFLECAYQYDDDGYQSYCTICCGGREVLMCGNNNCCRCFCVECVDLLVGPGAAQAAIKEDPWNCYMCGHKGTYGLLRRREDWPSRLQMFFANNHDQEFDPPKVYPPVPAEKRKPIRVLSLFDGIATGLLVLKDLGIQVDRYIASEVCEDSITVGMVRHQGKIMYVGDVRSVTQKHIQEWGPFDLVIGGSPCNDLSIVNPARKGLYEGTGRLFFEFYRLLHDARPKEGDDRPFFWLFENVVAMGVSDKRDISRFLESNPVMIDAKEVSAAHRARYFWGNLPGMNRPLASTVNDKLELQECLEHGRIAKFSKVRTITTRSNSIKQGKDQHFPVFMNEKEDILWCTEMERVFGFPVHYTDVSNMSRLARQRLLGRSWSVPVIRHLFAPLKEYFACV
Another data set concerns HCC1419. The experiment in a line: Antitumor activity against human HCC1419 cells assessed as cell growth inhibition treated for 10 to 15 days. It counts as functional. The following applies: time 10-15 day.
For the next data set, the system named is AGS. The experiment in a line: Antitumor activity against human AGS cells assessed as cell growth inhibition treated for 10 to 15 days. The data set is classed as functional. Conditions: time 10-15 day.
The target in data set [11] is Histone-lysine N-methyltransferase, H3 lysine-36 specific (Homo sapiens, UniProt Q96L73). The experiment in a line: Inhibition of human NSD1 using Nucleosomes and [3H]SAM as substrate incubated for 30 mins to 1 hr by HotSpot kinase assay.
Histone-lysine N-methyltransferase, H3 lysine-36 specific, sequence (Q96L73 whole entry): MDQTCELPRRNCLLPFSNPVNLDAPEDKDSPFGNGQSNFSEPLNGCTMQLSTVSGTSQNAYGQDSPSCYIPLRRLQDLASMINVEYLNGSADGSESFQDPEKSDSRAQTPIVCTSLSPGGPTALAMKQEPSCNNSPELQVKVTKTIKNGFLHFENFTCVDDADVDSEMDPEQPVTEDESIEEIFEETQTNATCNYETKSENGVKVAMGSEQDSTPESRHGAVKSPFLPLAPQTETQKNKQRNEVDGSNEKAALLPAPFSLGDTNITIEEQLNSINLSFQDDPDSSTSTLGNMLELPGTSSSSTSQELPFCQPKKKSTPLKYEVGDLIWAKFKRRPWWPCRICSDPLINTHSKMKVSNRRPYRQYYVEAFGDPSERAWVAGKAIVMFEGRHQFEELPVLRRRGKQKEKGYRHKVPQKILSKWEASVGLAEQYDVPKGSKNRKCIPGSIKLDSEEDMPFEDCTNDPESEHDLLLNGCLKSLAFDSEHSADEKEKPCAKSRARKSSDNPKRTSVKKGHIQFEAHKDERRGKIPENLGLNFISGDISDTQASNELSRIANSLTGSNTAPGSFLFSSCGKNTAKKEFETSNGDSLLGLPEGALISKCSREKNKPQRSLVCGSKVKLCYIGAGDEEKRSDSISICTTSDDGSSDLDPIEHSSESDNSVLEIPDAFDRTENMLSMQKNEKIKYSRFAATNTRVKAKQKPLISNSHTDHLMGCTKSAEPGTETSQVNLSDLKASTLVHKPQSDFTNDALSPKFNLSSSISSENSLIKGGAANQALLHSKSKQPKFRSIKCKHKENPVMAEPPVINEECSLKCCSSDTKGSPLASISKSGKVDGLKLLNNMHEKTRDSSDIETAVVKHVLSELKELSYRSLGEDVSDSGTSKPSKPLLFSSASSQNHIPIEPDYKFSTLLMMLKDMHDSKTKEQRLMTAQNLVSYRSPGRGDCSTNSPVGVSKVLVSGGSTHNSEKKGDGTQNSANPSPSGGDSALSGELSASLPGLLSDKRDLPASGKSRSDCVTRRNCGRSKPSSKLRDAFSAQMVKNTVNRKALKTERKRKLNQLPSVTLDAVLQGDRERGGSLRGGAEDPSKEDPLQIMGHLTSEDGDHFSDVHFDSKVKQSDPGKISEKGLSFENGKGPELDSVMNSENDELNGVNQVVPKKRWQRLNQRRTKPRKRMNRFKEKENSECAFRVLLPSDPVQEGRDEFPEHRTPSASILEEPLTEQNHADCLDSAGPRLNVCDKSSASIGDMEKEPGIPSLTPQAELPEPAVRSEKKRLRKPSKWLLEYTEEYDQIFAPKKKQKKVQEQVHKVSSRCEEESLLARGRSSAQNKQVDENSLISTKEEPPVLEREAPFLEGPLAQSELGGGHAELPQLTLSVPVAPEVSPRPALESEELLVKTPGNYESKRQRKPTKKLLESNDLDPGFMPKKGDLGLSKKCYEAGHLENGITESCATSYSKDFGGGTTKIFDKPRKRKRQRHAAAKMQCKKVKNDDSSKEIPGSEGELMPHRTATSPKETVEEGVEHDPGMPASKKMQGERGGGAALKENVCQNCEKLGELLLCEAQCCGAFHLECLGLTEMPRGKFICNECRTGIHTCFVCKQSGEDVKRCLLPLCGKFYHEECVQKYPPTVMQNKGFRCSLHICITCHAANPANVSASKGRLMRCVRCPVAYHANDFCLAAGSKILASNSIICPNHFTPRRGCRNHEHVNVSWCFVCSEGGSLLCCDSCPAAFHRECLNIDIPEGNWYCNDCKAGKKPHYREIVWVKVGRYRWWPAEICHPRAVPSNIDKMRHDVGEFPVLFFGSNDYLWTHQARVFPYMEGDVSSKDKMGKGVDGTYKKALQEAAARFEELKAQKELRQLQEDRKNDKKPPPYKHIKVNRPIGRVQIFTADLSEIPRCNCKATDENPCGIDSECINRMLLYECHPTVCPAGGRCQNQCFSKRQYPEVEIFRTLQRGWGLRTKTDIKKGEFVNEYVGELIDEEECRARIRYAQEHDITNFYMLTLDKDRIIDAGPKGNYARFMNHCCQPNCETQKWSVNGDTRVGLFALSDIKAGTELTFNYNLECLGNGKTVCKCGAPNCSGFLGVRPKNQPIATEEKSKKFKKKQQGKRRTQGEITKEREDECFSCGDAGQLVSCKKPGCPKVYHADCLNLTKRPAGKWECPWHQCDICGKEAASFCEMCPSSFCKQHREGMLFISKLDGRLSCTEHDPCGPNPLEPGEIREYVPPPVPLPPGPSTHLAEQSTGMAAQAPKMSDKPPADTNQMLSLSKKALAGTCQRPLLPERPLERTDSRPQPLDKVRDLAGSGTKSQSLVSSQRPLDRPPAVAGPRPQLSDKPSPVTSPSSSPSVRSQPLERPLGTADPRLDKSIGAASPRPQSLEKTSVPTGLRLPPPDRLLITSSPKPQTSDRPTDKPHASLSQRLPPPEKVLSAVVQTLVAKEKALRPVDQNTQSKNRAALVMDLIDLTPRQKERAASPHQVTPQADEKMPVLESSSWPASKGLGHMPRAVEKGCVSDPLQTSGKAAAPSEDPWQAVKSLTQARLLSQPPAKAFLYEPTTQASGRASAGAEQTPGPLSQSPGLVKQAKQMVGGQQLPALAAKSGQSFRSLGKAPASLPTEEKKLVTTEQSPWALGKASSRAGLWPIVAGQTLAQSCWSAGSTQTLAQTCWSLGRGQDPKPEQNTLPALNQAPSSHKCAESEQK
Another data set concerns CW-2. The experiment in a line: Antitumor activity against human CW-2 cells assessed as cell growth inhibition treated for 10 to 15 days. It counts as functional. The following applies: time 10-15 day.
The nature of data set [12]: Antitumor activity against human PCM6 cells assessed as cell growth inhibition treated for 10 to 15 days. The data set is classed as functional. The following applies: time 10-15 day.
For another data set, the system named is HCC1143. The experiment in a line: Antitumor activity against human HCC1143 cells assessed as cell growth inhibition treated for 10 to 15 days. It counts as functional. The following applies: time 10-15 day.
A short description of data set [13]: Antitumor activity against human NCI-H1781 cells assessed as cell growth inhibition treated for 10 to 15 days. It counts as functional. Conditions: time 10-15 day.
The subject of another data set is RL. The experiment in a line: Antitumor activity against human RL cells assessed as cell growth inhibition treated for 10 to 15 days. It counts as functional. Conditions: time 10-15 day.
The test system of a further data set is Pfeiffer. The experiment in a line: Antitumor activity against human Pfeiffer cells assessed as cell growth inhibition treated for 10 to 15 days. The data set is classed as functional. Conditions: time 10-15 day.
Data set [14] addresses Angiopoietin-1 receptor (Homo sapiens) (UniProt Q02763). The experiment in a line: Inhibition of N-terminal GST-tagged human TIE2 cytoplasmic domain (771 to 1124 residues) expressed in baculovirus-infected Sf21 cells using Blk/Lyntide as substrate at 1 uM in presence of ATP by Mobility shift assay.
For the next data set, the system named is TGBC11TKB. The experiment in a line: Antitumor activity against human TGBC11TKB cells assessed as cell growth inhibition treated for 10 to 15 days. It counts as functional. The following applies: time 10-15 day.
The nature of data set [15]: Antitumor activity against human OVISE cells assessed as cell growth inhibition treated for 10 to 15 days. The data set is classed as functional. The following applies: time 10-15 day.
For another data set, the system named is U-266. The experiment in a line: Antitumor activity against human U266B1 cells assessed as cell growth inhibition treated for 10 to 15 days. It counts as functional. Conditions: time 10-15 day.
In the next data set the test system is LoVo. The experiment in a line: Antitumor activity against human LoVo cells assessed as cell growth inhibition treated for 10 to 15 days. The data set is classed as functional. Conditions: time 10-15 day.
The subject of another data set is OAW-42. The experiment in a line: Antitumor activity against human OAW-42 cells assessed as cell growth inhibition treated for 10 to 15 days. The data set is classed as functional. Conditions: time 10-15 day.
Data set [16] is described as follows: Antitumor activity against human COV644 cells assessed as cell growth inhibition treated for 10 to 15 days. The data set is classed as functional. Conditions: time 10-15 day.
Another data set has as its system NCI-H446. The experiment in a line: Antitumor activity against human NCI-H446 cells assessed as cell growth inhibition treated for 10 to 15 days. It counts as functional. The following applies: time 10-15 day.
In another data set the test system is OCI-Ly7. The experiment in a line: Antitumor activity against human OCILY7 cells assessed as cell growth inhibition treated for 10 to 15 days. The data set is classed as functional. The following applies: time 10-15 day.
For the next data set, the system named is MV4-11. The experiment in a line: Antitumor activity against human MV4-11 cells assessed as cell growth inhibition treated for 10 to 15 days. Conditions: time 10-15 day. It counts as functional.
The subject of a further data set is MC116. The experiment in a line: Antitumor activity against human MC116 cells assessed as cell growth inhibition treated for 10 to 15 days. The data set is classed as functional. Conditions: time 10-15 day.
The next data set concerns SK-ES1. The experiment in a line: Antitumor activity against human SK-ES1 cells assessed as cell growth inhibition treated for 10 to 15 days. The data set is classed as functional. Conditions: time 10-15 day.
Data set [17] is described as follows: Antitumor activity against human Kasumi-3 cells assessed as cell growth inhibition treated for 10 to 15 days. It counts as functional. Conditions: time 10-15 day.
The subject of the next data set is VCaP. The experiment in a line: Antitumor activity against human VCaP cells assessed as cell growth inhibition treated for 10 to 15 days. It counts as functional. Conditions: time 10-15 day.
Another data set concerns TALL-1. The experiment in a line: Antitumor activity against human TALL-1 cells assessed as cell growth inhibition treated for 10 to 15 days. The data set is classed as functional. Conditions: time 10-15 day.
The subject of the next data set is Hs746T. The experiment in a line: Antitumor activity against human Hs746T cells assessed as cell growth inhibition treated for 10 to 15 days. The data set is classed as functional. Conditions: time 10-15 day.
In the next data set the test system is HCT-15. The experiment in a line: Antitumor activity against human HCT-15 cells assessed as cell growth inhibition treated for 10 to 15 days. The data set is classed as functional. The following applies: time 10-15 day.
The test system of the next data set is HT1197. The experiment in a line: Antitumor activity against human HT1197 cells assessed as cell growth inhibition treated for 10 to 15 days. It counts as functional. Conditions: time 10-15 day.

Each structure is given as a SMILES string.

Angiopoietin-1 receptor (Homo sapiens), sequence (Q02763 whole entry, the tested form may be a part): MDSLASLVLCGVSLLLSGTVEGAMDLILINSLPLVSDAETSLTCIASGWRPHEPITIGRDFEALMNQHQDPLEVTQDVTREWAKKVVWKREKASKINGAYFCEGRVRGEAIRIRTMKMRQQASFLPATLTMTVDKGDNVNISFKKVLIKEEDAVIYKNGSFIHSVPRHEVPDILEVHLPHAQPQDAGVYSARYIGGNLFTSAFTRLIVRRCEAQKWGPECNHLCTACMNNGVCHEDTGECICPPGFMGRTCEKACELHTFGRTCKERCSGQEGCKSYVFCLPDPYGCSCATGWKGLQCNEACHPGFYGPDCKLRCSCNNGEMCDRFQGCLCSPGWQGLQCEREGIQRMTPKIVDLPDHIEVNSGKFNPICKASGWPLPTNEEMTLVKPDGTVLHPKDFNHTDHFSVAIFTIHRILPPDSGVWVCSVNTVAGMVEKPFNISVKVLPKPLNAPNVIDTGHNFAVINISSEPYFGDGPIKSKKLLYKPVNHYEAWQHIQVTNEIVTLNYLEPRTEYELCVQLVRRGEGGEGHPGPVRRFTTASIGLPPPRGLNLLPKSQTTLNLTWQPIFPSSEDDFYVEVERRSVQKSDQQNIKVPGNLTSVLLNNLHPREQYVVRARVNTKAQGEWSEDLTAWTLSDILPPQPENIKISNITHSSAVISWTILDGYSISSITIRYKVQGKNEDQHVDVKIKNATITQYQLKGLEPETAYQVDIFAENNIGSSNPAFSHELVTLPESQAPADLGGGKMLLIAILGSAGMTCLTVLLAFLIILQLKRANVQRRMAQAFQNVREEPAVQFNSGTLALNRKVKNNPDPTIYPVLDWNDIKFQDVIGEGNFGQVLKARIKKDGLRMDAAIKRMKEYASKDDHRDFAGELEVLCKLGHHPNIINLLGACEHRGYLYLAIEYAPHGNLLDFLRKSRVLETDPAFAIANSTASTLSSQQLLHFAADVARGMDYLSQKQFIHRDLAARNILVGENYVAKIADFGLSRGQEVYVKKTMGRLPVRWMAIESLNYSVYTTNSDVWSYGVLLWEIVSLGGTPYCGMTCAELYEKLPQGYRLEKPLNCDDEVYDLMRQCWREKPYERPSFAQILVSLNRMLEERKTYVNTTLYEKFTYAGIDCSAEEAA

For orientation: AUC means concentration integrated over time. One may read the AUC(0-t) as the area under the concentration-time curve up to a stated or last time point. Turning to `Cc1cc(C)c(CNC(=O)c2cc(Br)c3c(c2C)O[C@@](C)([C@H]2CC[C@H](N(C)C)CC2)O3)c(=O)[nH]1`, the Activity in data set [1] is 0.105 10^3 /uL; in [2], 40.1%; in data set [3], 1.55 g/dL; in data set [4] it was 137 U/L; in [6], 3.75 g/dL; in the data set with KARPAS-422, “Dose-Dependent Effect”. In addition, in [5], the AUC stood at 25.2 µM·h. The compound also returned an AUC(0-t) in data set [7] of 1.6 µM·h.

The term GI50 denotes the concentration that inhibits growth by half. A word on the IC50: it is the concentration at which inhibition is half-maximal. A higher IC50 goes with weaker potency in that assay. In general, inhibition refers to the drop in the measured response relative to a control, in per cent. As for `Cc1cc(C)c(CNC(=O)c2cc(Cl)c3c(c2C)O[C@@](C)([C@H]2CC[C@H](N(C)C)CC2)O3)c(=O)[nH]1` [VALEMETOSTAT], the 50% growth inhibitory concentration (GI50) was > 1000 nM in the data set with NCI-H520; 138 nM in the data set on ZR-75-1; > 1000 nM in data set [8]; 24.7 nM with MDA-MB-415; 1.74 nM in the data set on HT; > 1000 nM in the data set on SNU-423. Further, the GI50 was > 1000 nM in the data set with UACC-893; > 1000 nM with Panc1005; 12.5 nM in data set [9]; > 1000 nM in the data set on HCC1419; > 1000 nM in the data set on AGS; > 1000 nM in the data set with CW-2. Besides, the GI50 was 32.5 nM in [12]; > 1000 nM with HCC1143; > 1000 nM in [13]; > 1000 nM with RL; 0.107 nM in the data set with Pfeiffer; 86.7 nM in the data set on TGBC11TKB. Besides, the GI50 in data set [15] is > 1000 nM; in the data set on U-266 it was 6.88 nM; in the data set with LoVo, 150 nM; in the data set on OAW-42, > 1000 nM; in data set [16], > 1000 nM; in the data set on NCI-H446, 124 nM. Moreover, the concentration for 50% growth inhibition (GI50) in the data set with OCI-Ly7 was 59.2 nM; in the data set on MV4-11, 3.19 nM; in the data set with MC116 it was 50.4 nM; with SK-ES1 it was > 1000 nM; in data set [17], > 1000 nM; in the data set with VCaP it was 50.7 nM. Further, the GI50 is > 1000 nM in the data set on TALL-1, > 1000 nM with Hs746T, > 1000 nM in the data set with HCT-15 and 13.1 nM in the data set with HT1197. The half-maximal inhibitory concentration (IC50) in data set [10] and in data set [11] was 100000 nM each time. The inhibition in data set [14] is -7.6%.

The record behind these values is ChEMBL document CHEMBL5647694, “Novel orally bioavailable EZH1/2 dual inhibitors with greater antitumor efficacy than an EZH2 selective inhibitor” (Cancer Sci, 2017).
